The source of these data is ChEMBL document CHEMBL3297728, “Synthesis and antituberculosis activity of novel 5-styryl-4-(hetero)aryl-pyrimidines via combination of the Pd-catalyzed Suzuki cross-coupling and S(N)(H) reactions” (Bioorg Med Chem Lett, 2014).

For data set [1], the system named is Mycobacterium tuberculosis. Nature of the data set: Antimycobacterial activity against Mycobacterium tuberculosis H37Rv after 10 days by microbroth dilution method. Particulars: 240 h. In kind it is functional.
Data set [2] in a line: Acute toxicity in mouse administered as single po dose. Format: organism-based. Particulars: in vivo.
A further data set deals with Mycolicibacter terrae. Nature of the data set: Antimycobacterial activity against Mycobacterium terrae after 10 days by microbroth dilution method. In kind it is functional. The conditions noted are these: 240 h. On the technique in general: Dilution methods test growth across graded concentrations, often in twofold steps.
The test system of another data set is Mycobacterium avium. Put plainly: Antimycobacterial activity against Mycobacterium avium after 10 days by microbroth dilution method. Particulars: 240 h. In kind it is functional.
Data set [3] is described as follows: Acute toxicity in mouse administered as single ip dose. Particulars: in vivo. In kind it is organism-based.

≈ marks a conversion by molar mass, not a printed value.

`Brc1cncnc1-c1cccs1`: the MIC (usually the lowest concentration that inhibits growth of the organism) in data set [1] amounted to 0.7 µg/mL (≈ 2.9 µM); with Mycolicibacter terrae it was 0.3 µg/mL (≈ 1.24 µM); against Mycobacterium avium, 0.3 µg/mL (≈ 1.24 µM). Besides, the LD50 (in general, the dose expected to kill half of the subjects tested) in data set [2] was 315 mg/kg. Take `Brc1cncnc1-c1ccc(-c2cccs2)s1`: in the data set with Mycolicibacter terrae, the MIC was determined as 0.7 µg/mL (≈ 2.17 µM). Turning to `Brc1cncnc1-c1ccc(-c2ccccc2)s1`, the MIC in data set [1] was found to be 6.25 µg/mL (≈ 19.7 µM). As for `Brc1cncnc1-c1ccco1`, the MIC in data set [1] came out at 1.5 µg/mL (≈ 6.67 µM); in the data set with Mycolicibacter terrae, 0.7 µg/mL (≈ 3.11 µM); against Mycobacterium avium it was 0.7 µg/mL (≈ 3.11 µM). Further, the 50% lethal dose (LD50) in data set [2] came to 405 mg/kg. In the case of `C(=C\c1cncnc1-c1cccs1)/c1ccccc1`, it took 12.5 µg/mL (≈ 47.3 µM) to inhibit growth in data set [1] (MIC). In the case of `C(=C\c1cncnc1-c1ccc(-c2ccccc2)s1)/c1ccccc1`, the MIC in data set [1] amounted to 12.5 µg/mL (≈ 36.7 µM). In the data set on Mycolicibacter terrae, `C(=C\c1cncnc1-c1ccc(-c2cccs2)s1)/c1ccccc1` gave a minimum inhibitory concentration (MIC) of 0.7 µg/mL (≈ 2.02 µM). In data set [1], `C(=C\c1cncnc1-c1ccco1)/c1ccccc1` came in with a minimal inhibitory concentration (MIC) of 6.25 µg/mL (≈ 25.2 µM). The compound `C(=C\c1cncnc1-c1cccs1)/c1ccc(-c2ccccc2)cc1` gave an MIC in data set [1] of 12.5 µg/mL (≈ 36.7 µM).

Regarding `C(=C\c1cncnc1-c1ccc(-c2ccccc2)s1)/c1ccc(-c2ccccc2)cc1`, in data set [1], it took 12.5 µg/mL (≈ 30 µM) to inhibit growth (MIC).

`C(=C\c1cncnc1-c1ccc(-c2cccs2)s1)/c1ccc(-c2ccccc2)cc1`: the values for the MIC (in data set [1]; against Mycolicibacter terrae; with Mycobacterium avium) were 1.5 µg/mL (≈ 3.55 µM), 0.7 µg/mL (≈ 1.66 µM) and 0.7 µg/mL (≈ 1.66 µM), respectively. Further, the 50% lethal dose (LD50) in data set [2] is 78 mg/kg. Turning to `C(=C\c1cncnc1-c1ccco1)/c1ccc(-c2ccccc2)cc1`, the MIC in data set [1] amounted to 12.5 µg/mL (≈ 38.5 µM). In turn, `c1csc(-c2ccncn2)c1` registered an MIC in data set [1] of 12.5 µg/mL (≈ 77.1 µM). `c1ccc(-c2ccc(-c3ccncn3)s2)cc1` came in with an MIC in data set [1] of 12.5 µg/mL (≈ 52.5 µM). Take `c1csc(-c2ccc(-c3ccncn3)s2)c1`: 12.5 µg/mL (≈ 51.2 µM) was the least that counted as inhibitory in data set [1] (MIC). Take `NNC(=O)c1ccncc1` [ISONIAZID]: the MIC (in data set [1]; in the data set with Mycolicibacter terrae; against Mycobacterium avium) was 0.1 µg/mL (≈ 0.729 µM) throughout. Besides, the results for the LD50 in data set [2] and in data set [3] were 133 mg/kg and 151 mg/kg, respectively. In data set [1], `NC(=O)c1cnccn1` [PYRAZINAMIDE] registered an MIC of 12.5 µg/mL (≈ 102 µM). In addition, the LD50 in data set [3] was 1680 mg/kg.
